Reference: ChEMBL document CHEMBL4842391, “Discovery and Nanosized Preparations of (S,R)-Tylophorine Malate as Novel anti-SARS-CoV-2 Agents” (ACS Med Chem Lett, 2021)
Activity calls are given as the source filed them. The rule behind the calls is not given here.

Legend:
[1] = test system: SARS-CoV-2; test: Antiviral activity against SARS-CoV-2 C-Tan-nCoV Wuhan strain 01 infected in African green monkey Vero cells assessed as inhibition of viral replication measured after 48 hrs by RT-qPCR method; assay type: functional, organism-based; settings: Severe acute respiratory syndrome coronavirus 2, C-Tan-nCoV Wuhan strain 01, Vero
[2] = Toxicity in Hamster rat infected with SARS-CoV-2 C-Tan-nCoV Wuhan strain 01 assessed as body weight loss at 25 mg/kg, inh measured after 4 days; assay type: organism-based; settings: in vivo, inhaled_or_intranasal, 96 h, time 4 day
[3] = test system: SARS-CoV-2; test: Antiviral activity against SARS-CoV-2 C-Tan-nCoV Wuhan strain 01 virus infected in Hamster rat assessed as widening of alveolar septum at 25 mg/kg, inh administered for 3 days starting from 1 hr post infection and measured on day 4 by histopathological analysis; assay type: functional, organism-based; settings: Severe acute respiratory syndrome coronavirus 2, time 4.0 day
[4] = test system: SARS-CoV-2; test: Antiviral activity against SARS-CoV-2 C-Tan-nCoV Wuhan strain 01 virus infected in Hamster rat assessed as widening of bronchus at 25 mg/kg, inh administered for 3 days starting from 1 hr post infection and measured on day 4 by histopathological analysis; assay type: functional, organism-based; settings: Severe acute respiratory syndrome coronavirus 2, time 4.0 day
[5] = test system: SARS-CoV-2; test: Antiviral activity against SARS-CoV-2 C-Tan-nCoV Wuhan strain 01 virus infected in Hamster rat assessed as widening of perivascular interstitium at 25 mg/kg, inh administered for 3 days starting from 1 hr post infection and measured on day 4 by histopathological analysis; assay type: functional, organism-based; settings: Severe acute respiratory syndrome coronavirus 2, time 4.0 day
[6] = test system: SARS-CoV-2; test: Antiviral activity against SARS-CoV-2 C-Tan-nCoV Wuhan strain 01 virus infected in Hamster rat assessed as infiltration of lymphocytes at 25 mg/kg, inh administered for 3 days starting from 1 hr post infection and measured on day 4 by histopathological analysis; assay type: functional, organism-based; settings: Severe acute respiratory syndrome coronavirus 2, time 4.0 day
[7] = test system: SARS-CoV-2; test: Antiviral activity against SARS-CoV-2 C-Tan-nCoV Wuhan strain 01 virus infected in Hamster rat assessed as infiltration of neutrophils at 25 mg/kg, inh administered for 3 days starting from 1 hr post infection and measured on day 4 by histopathological analysis; assay type: functional, organism-based; settings: Severe acute respiratory syndrome coronavirus 2, time 4.0 day
[8] = test system: SARS-CoV-2; test: Antiviral activity against SARS-CoV-2 C-Tan-nCoV Wuhan strain 01 virus infected in Hamster rat assessed as widening of alveolar septum at 5 mg/kg, inh administered for 3 days starting from 1 hr post infection and measured on day 4 by histopathological analysis; assay type: functional, organism-based; settings: Severe acute respiratory syndrome coronavirus 2, time 4.0 day
[9] = test system: SARS-CoV-2; test: Antiviral activity against SARS-CoV-2 C-Tan-nCoV Wuhan strain 01 virus infected in Hamster rat assessed as widening of bronchus at 5 mg/kg, inh administered for 3 days starting from 1 hr post infection and measured on day 4 by histopathological analysis; assay type: functional, organism-based; settings: Severe acute respiratory syndrome coronavirus 2, time 4.0 day
[10] = test system: SARS-CoV-2; test: Antiviral activity against SARS-CoV-2 C-Tan-nCoV Wuhan strain 01 virus infected in Hamster rat assessed as widening of perivascular interstitium at 5 mg/kg, inh administered for 3 days starting from 1 hr post infection and measured on day 4 by histopathological analysis; assay type: functional, organism-based; settings: Severe acute respiratory syndrome coronavirus 2, time 4.0 day
[11] = test system: SARS-CoV-2; test: Antiviral activity against SARS-CoV-2 C-Tan-nCoV Wuhan strain 01 virus infected in Hamster rat assessed as infiltration of lymphocytes at 5 mg/kg, inh administered for 3 days starting from 1 hr post infection and measured on day 4 by histopathological analysis; assay type: functional, organism-based; settings: Severe acute respiratory syndrome coronavirus 2, time 4.0 day
[12] = test system: SARS-CoV-2; test: Antiviral activity against SARS-CoV-2 C-Tan-nCoV Wuhan strain 01 virus infected in Hamster rat assessed as infiltration of neutrophils at 5 mg/kg, inh administered for 3 days starting from 1 hr post infection and measured on day 4 by histopathological analysis; assay type: functional, organism-based; settings: Severe acute respiratory syndrome coronavirus 2, time 4.0 day
[13] = Cytotoxicity against African green monkey Vero cells; assay type: cell-based; settings: chlorocebus sabaeus
[14] = Toxicity in Hamster rat infected with SARS-CoV-2 C-Tan-nCoV Wuhan strain 01 assessed as body weight loss at 5 mg/kg, inh measured after 4 days; assay type: organism-based; settings: in vivo, inhaled_or_intranasal, 96 h, time 4 day
[15] = Safety index, ratio of CC50 for African green monkey Vero cells to EC50 for antiviral activity against SARS-CoV-2 C-Tan-nCoV Wuhan strain 01 infected in African green monkey Vero cells; assay type: toxicity; settings: read-out: Ratio CC50/EC50

Structure (SMILES) | EC50 [1] | Activity [2] | Activity [3] | Activity [4] | Activity [5] | Activity [6] | Activity [7] | Activity [8] | Activity [9] | Activity [10] | Activity [11] | Activity [12] | CC50 [13] | Activity [14] | selectivity ratio [15]
CCC(CC)COC(=O)[C@H](C)N[P@](=O)(OC[C@H]1O[C@@](C#N)(c2ccc3c(N)ncnn23)[C@H](O)[C@@H]1O)Oc1ccccc1 [REMDESIVIR] | 800 nM | Non-Toxic | Active | Active | Active | Active | Active | Active | Active | Active | Active | Active |  |  | 
COc1cc2c3c(c4cc(OC)c(OC)cc4c2cc1OC)CN1CCC[C@H]1C3.O=C(O)C[C@@H](O)C(=O)O | 30 nM |  |  |  |  |  |  |  |  |  |  |  | 26.2 µM | Non-Toxic | 268
